Format in all cases: cell-based
For assay [1], the system named is human melanoma SKMEL28 cells. Put plainly: MTS cell viability assay, SKMEL28. The settings on record: for IC90: SK-MEL-28, Table 6. On the procedure: (§1) Human carcinoid cells, NCI-H727 (ATCC, Manassas, Va.), were cultured under standard conditions. Squamous cell carcinoma of head and neck cells, MDA1986 (Myers, et al. (2002) Clin. Cancer Res. 8:293) and JMAR (Swan, et al. (2003) Oral Oncol. 39:648-55); and melanoma cells lines B16F10 (ATCC, Manassas, Va.) and SKMEL28 (CLS, Eppelheim, Germany) were cultured in DMEM medium supplemented with 10% heat-inactivated fetal bovine serum (Sigma-Aldrich, St. Louis, Mo.), 1×MEM-essential amino acid, 1×MEM vitamin, and penicillin/streptomycin (Sigma-Aldrich, St. Louis, Mo.) in a humid environment of 5% CO2 at 37° C. Activity of withanolides against DRO81-1 and TT medullary thyroid cancer cells was also determined.
(§2) Cells were cultured in 96 well plates at a concentration of 1-2×10^4 cells/mL. Cell viability was assessed with the nonradioactive cell proliferation MTS assay using Cell Titer 96AQUEOUS One Solution Reagent (PROMEGA, Madison, Wis.), according to the manufacturer's instruction. After a 72-hour treatment, 20 μL of Cell Titer 96AQUEOUS One Solution Reagent were added to each well and incubated for 3 hours at 37° C. 5% CO2, and formazan absorbance was measured at 490 nm.
A cell viability MTS assay was carried out to determine the anti-cancer effect of the withanolides on human melanoma SKMEL28 cells. Cells were treated for 72 hours and cell viability was determined according to the manufacturer's instruction.

For assay [2], the system named is squamous cell carcinoma of head and neck cells JMAR. Nature of the assay: MTS cell viability assay, JMAR. The settings on record: for IC50: Table 5; for IC90: Table 6. On the procedure: as §1, §2
The subject of assay [3] is squamous cell carcinoma of head and neck cells MDA1986. Put plainly: MTS cell viability assay, MDA1986. The settings on record: for IC50: Table 5; for IC90: Table 6. Here is the method:
as §1, §2

For a further assay, the system named is melanoma cells B16F10. Put plainly: MTS cell viability assay, B16F10. The settings on record: Mus musculus; for IC50: B16-F10, Table 5; for IC90: B16-F10, Table 6. On the procedure:
as §1, §2

For a further assay, the system named is MRC-5. Nature of the assay: MTS cell viability assay, MRC-5. The settings on record: Homo sapiens, MRC5, Table 5.
The mark [4] stands for this setting: Homo sapiens, SK-MEL-28, Table 5.
[5] abbreviates: Table 3, treated for 72 hours, NA = no activity.

Consider `CC1=C(COC(=O)c2ccc(Cl)cc2)C(=O)O[C@@H]([C@@H](C)[C@H]2CC[C@H]3[C@@H]4C[C@H]5O[C@]56[C@@H](OC(=O)c5ccc(Cl)cc5)C=CC(=O)[C@]6(CO)[C@H]4CC[C@]23C)C1` [HFM-JA-398B], for which the IC50 was more than 25 µM in assay [1] (setting [4]); 10.6 µM in assay [2]; more than 25 µM in assay [3]; 10 µM in the assay on melanoma cells B16F10; 7.13 µM with MRC-5.
With `CC1=C(CO)C(=O)O[C@@H]([C@@H](C)[C@H]2CC[C@H]3[C@@H]4C[C@H]5O[C@]56[C@@H](O)[C@@H](O)CC(=O)[C@]6(C)[C@H]4CC[C@]23C)C1` [Viscosalactone B, reference compound], in assay [1] (setting [5]), the IC50 was 18.9 µM.
Consider `CC1=C(CO)C(=O)O[C@@H]([C@@H](C)[C@H]2CC[C@H]3[C@@H]4C[C@H]5O[C@]56[C@@H](OC(=O)c5ccc(Cl)cc5)C=CC(=O)[C@]6(CO)[C@H]4CC[C@]23C)C1` [HFM-JA-398H], for which the IC50 was 3.45 µM in assay [1] (setting [4]); 2.61 µM in assay [2]; 6.05 µM in assay [3]; 2.35 µM with melanoma cells B16F10; 5.29 µM with MRC-5.
With `CC1=C(COC2OC(CO)C(O)C(O)C2O)C[C@H]([C@@H](C)[C@H]2CC[C@H]3[C@@H]4CC(=O)C5=C(CC[C@@H](O)C5)[C@H]4CC[C@]23C)OC1=O` (stereo partly drawn) [Compound X014], the IC50 (in assay [1] (setting [4]); in assay [2]; in assay [3]; in the assay on melanoma cells B16F10; with MRC-5) was more than 25 µM each time.
Consider `CC1=C(COC2OC(CO)C(O)C(O)C2O)C[C@H]([C@@H](C)[C@H]2CC[C@H]3[C@@H]4CC=C5C[C@@H](O)C[C@H](O)[C@]5(CO)[C@H]4CC[C@]23C)OC1=O` (stereo partly drawn) [Compound X013], for which the IC50 (in assay [1] (setting [4]); in assay [2]; in assay [3]; with melanoma cells B16F10; in the assay on MRC-5) was more than 25 µM throughout.
As to `CC1=C(CO)C(=O)O[C@@H]([C@@H](C)[C@H]2CC[C@H]3[C@@H]4C[C@H]5O[C@]56[C@@H](OC(=O)N(C)C)C=CC(=O)[C@]6(CO)[C@H]4CC[C@]23C)C1` [HFM-JA-403], the IC50 in assay [1] (setting [4]) is 2.31 µM; in assay [2] it was 0.55 µM; in assay [3], 2.48 µM; with melanoma cells B16F10, 0.28 µM; with MRC-5 it was 0.69 µM.
As to `CC1=C(CO)C(=O)OC(C(C)C2CCC3C4CC(O)C5(C=O)CCC(=O)C5(C)C4CCC23C)C1` (stereo not drawn) [Compound O010, 22R-5β-formyl-6β,27-dihydroxyl-1-oxo-4-norwith-24-enolide, reference compound], the midpoint of inhibition in assay [1] (setting [5]), the IC50, lay at 17 µM.
In the case of `CC(=O)OC[C@]12C(=O)C=C[C@H](O)[C@]13O[C@@H]3C[C@H]1[C@@H]3CC[C@H]([C@H](C)[C@H]4CC(C)=C(CO)C(=O)O4)[C@@]3(C)CC[C@@H]12` [HFM-JA-336B], the values for the IC50 (in assay [1] (setting [4]); in assay [2]; in the assay on melanoma cells B16F10) were 0.24 µM, 1.2 µM and 0.37 µM, respectively. Moreover, the IC90 in assay [1] (Homo sapiens) was 1.16 µM; in assay [2], 3.1 µM; in assay [3] it was 1.2 µM; in the assay with melanoma cells B16F10, 1.2 µM.
Consider `CC1=C(C)C(=O)O[C@@H]([C@@H](C)[C@H]2CC[C@H]3[C@@H]4C[C@H]5O[C@]56[C@@H](O)C=CC(=O)[C@]6(CO)[C@H]4CC[C@]23C)C1` [Compound X030B], for which the IC50 amounted to 3.91 µM in assay [1] (setting [4]); 0.17 µM in assay [2]; 1.3 µM in assay [3]; 0.2 µM with melanoma cells B16F10; 0.4 µM in the assay with MRC-5.
Regarding `CC1=C(COC2OC(CO)C(O)C(O)C2O)C[C@H]([C@@H](C)[C@H]2CC[C@H]3[C@@H]4C[C@H](O)c5cccc(O)c5[C@H]4CC[C@]23C)OC1=O` (stereo partly drawn) [Compound X015], the 50% inhibitory concentration (IC50) (in assay [1] (setting [4]); in assay [2]; in assay [3]; in the assay on melanoma cells B16F10; in the assay with MRC-5) was more than 25 µM in each case.
As to `CC1=C(CO)C(=O)O[C@@H]([C@@H](C)[C@H]2CC[C@H]3[C@@H]4C[C@H]5O[C@]56[C@@H](OC(=O)CN(C)C)C=CC(=O)[C@]6(C)[C@H]4CC[C@]23C)C1` [Compound X036], the IC50 stood at 2.35 µM in assay [1] (setting [4]); 3.53 µM in assay [2]; 1.59 µM in assay [3]; 4.37 µM in the assay on melanoma cells B16F10; 3.69 µM with MRC-5.
With `CC1=C(COC2OC(CO)C(OC3OC(C)C(O)C(O)C3O)C(O)C2O)C(=O)O[C@@H]([C@@H](C)[C@H]2CC[C@H]3[C@@H]4C[C@H]5O[C@]56[C@@H](O)C=CC(=O)[C@]6(C)[C@H]4CC[C@]23C)C1` (stereo partly drawn) [Compound X011], the IC50 in assay [1] (setting [4]) was 17.4 µM; in assay [2], 8.24 µM; in assay [3], 8.1 µM; with melanoma cells B16F10, more than 25 µM; in the assay on MRC-5, 8.72 µM.
On to `CC(=O)O[C@H]1C=CC(=O)[C@]2(CO)[C@H]3CC[C@]4(C)[C@@H]([C@H](C)[C@H]5CC(C)=C(CO)C(=O)O5)CC[C@H]4[C@@H]3C[C@H]3O[C@]132` [HFM-JA-336C], for which the IC50 in assay [1] (setting [4]) came out at 0.57 µM; in assay [2], 2 µM; with melanoma cells B16F10, 0.69 µM. Further, the IC90 was determined as 1.21 µM in assay [1] (Homo sapiens), 6.5 µM in assay [2], 2.5 µM in assay [3] and 2.5 µM in the assay with melanoma cells B16F10.
For `CC(=O)OC[C@]12C(=O)C=C[C@H](OC(=O)c3ccc(Cl)cc3)[C@]13O[C@@H]3C[C@H]1[C@@H]3CC[C@H]([C@H](C)[C@H]4CC(C)=C(COC(=O)c5ccc(Cl)cc5)C(=O)O4)[C@@]3(C)CC[C@@H]12` [HFM-JA-400], the IC50 was more than 25 µM in assay [1] (setting [4]); more than 25 µM in assay [2]; more than 25 µM in assay [3]; 9.04 µM with melanoma cells B16F10; 10.8 µM with MRC-5.
As for `CC(=O)OCC1=C(C)C[C@H]([C@@H](C)[C@H]2CC[C@H]3[C@@H]4C[C@H]5O[C@]56[C@@H](O)C=CC(=O)[C@]6(CO)[C@H]4CC[C@]23C)OC1=O` [HFM-JA-336A], the IC50 was determined as 0.58 µM in assay [1] (setting [4]), 3.6 µM in assay [2] and 0.28 µM in the assay with melanoma cells B16F10. Moreover, the IC90 in assay [1] (Homo sapiens) came to 0.86 µM; in assay [2], 9.8 µM; in assay [3], 2.7 µM; with melanoma cells B16F10, 2.7 µM.
In the case of `CC1=C(CO)C(=O)O[C@@H]([C@@H](C)[C@H]2CC[C@H]3[C@@H]4CC=C5C=CC(=O)[C@]5(C)[C@H]4CC[C@]23C)C1` [Compound X006], the half-inhibitory concentration (IC50) in assay [1] (setting [4]) was more than 25 µM; in assay [2], 19.7 µM; in assay [3], more than 25 µM; in the assay with melanoma cells B16F10, 19.2 µM; with MRC-5, more than 25 µM.
`CC(=O)OCC1=C(C)C[C@H]([C@@H](C)[C@H]2CC[C@H]3[C@@H]4C[C@H]5O[C@]56[C@@H](O)C=CC(=O)[C@]6(COC(C)=O)[C@H]4CC[C@]23C)OC1=O` [HFM-JA-336D]: the IC50 was determined as 0.27 µM in assay [1] (setting [4]), 1.45 µM in assay [2] and 0.37 µM in the assay on melanoma cells B16F10. In addition, the IC90 in assay [1] (Homo sapiens) amounted to 0.42 µM; in assay [2] it was 7.1 µM; in assay [3], 2.5 µM; in the assay on melanoma cells B16F10 it was 2.5 µM.
With `CO[C@H]1CC(=O)[C@]2(C)[C@@H]3[C@@H](C[C@H]4O[C@]42[C@H]1O)[C@@H]1CC[C@H]([C@H](C)[C@H]2CC(C)=C(CO)C(=O)O2)[C@@]1(C)C[C@@H]3O` [Compound X007], the IC50 in assay [1] (setting [4]) is 11.6 µM; in assay [2] it was 12 µM; in assay [3], 8.34 µM; in the assay with melanoma cells B16F10, 5.57 µM; in the assay on MRC-5, 7.33 µM.
Turning to `CC1=C(CO)C(=O)O[C@@](C)([C@@H](C)[C@H]2CC[C@H]3[C@@H]4CC=C5C[C@@H](OC6OC(CO)C(O)C(O)C6O)CC(=O)[C@]5(CO)[C@H]4CC[C@]23C)C1` (stereo partly drawn) [Compound X012], the IC50 is more than 25 µM in assay [1] (setting [4]); more than 25 µM in assay [2]; more than 25 µM in assay [3]; 10.7 µM in the assay with melanoma cells B16F10; more than 25 µM in the assay on MRC-5.
As to `C=CCNC1=C2C[C@@H](C)C[C@H](OC)[C@H](O)[C@@H](C)/C=C(\C)[C@H](OC(N)=O)[C@@H](OC)/C=C\C=C(/C)C(=O)NC(=CC1=O)C2=O` [17 AAG, 17-allylamino-17-demethoxygeldanamycin, reference compound], the IC50 in assay [1] (setting [5]) turned out to be 0.23 µM.

The values above are taken from patent US8598339B2, “Withanolide isolated from Physalis longifolia and analogs and methods of use thereof” (University of Kansas, priority 2011, dated 2013).
